{
  "source": "patent US9110076B2",
  "about": "“Method for quantifying modified peptides” (HVIVO SERVICES LIMITED, priority 2009, dated 2015)",
  "key": {"AML-193": {"tested_on": "AML-193", "assay": "Sensitivity of AML cell lines to drug treatment (MTS assay)", "type": "cell-based", "settings": "72 h", "description": "(§1) Sensitivity of AML cell lines to drug treatment. Eight cell lines (AML-193, CMK, CTS, HEL, Kasumi-1, KG-1, MV4-11 and P31/FUJ) were seeded in 96 well plates at 1×10^5 cell/ml in triplicate for each condition. After a recovery period of 2 h, cells were treated with increasing concentrations (1 nM, 10 nM, 100 nM, 1 μM and 10 μM) of FLT3 inhibitor, MEK I inhibitor, JAK I inhibitor, LY294002, PI-103 and IC87114. As controls, cells were both treated with the vehicle (DMSO) and left untreated. After 72 hours treatment, cell viability was assessed by MTS assay (CellTiter 96® AQueous One Solution Cell Proliferation assay, Promega Corporation, Madison, Wis., USA)."}, "HEL": {"tested_on": "HEL", "assay": "Sensitivity of AML cell lines to drug treatment (MTS assay)", "type": "cell-based", "settings": "72 h", "description": "as §1"}, "NIH-3T3 fibroblasts": {"tested_on": "NIH-3T3 fibroblasts", "assay": "TIQUAS quantification of phosphorylation sites in starved, serum-stimulated cells with or without wortmannin pre-incubation", "type": "cell-based, murine", "settings": "of 2,350 phosphorylated peptides quantified; WM treatment of cells prior to serum stimulation; 4 experiments", "description": "The novel quantitative techniques of the invention were used to quantify phosphorylation sites in NIH-3T3 fibroblasts, which were starved and then stimulated with serum with or without pre-incubation with the pan-PI3K inhibitor wortmannin (WM). These experiments were performed 4 times. […] Cells were treated as indicated, lysed with a urea-based buffer to obtain nuclear as well as cytosolic proteins and proteins digested. Resultant phosphorylated peptides were enriched by IMAC and TiO2 chromatography and quantified by LC-MS using a computer program developed by the inventors ([…]) (Cutillas and Vanhaesebroeck, Molecular & Cellular Proteomics 6, 1560-1573 (2007)). FIG. 2(B) gives a summary of the data obtained and a snapshot of the data sorted by probability."}, "MV4-11": {"tested_on": "MV4-11", "assay": "Sensitivity of AML cell lines to drug treatment (MTS assay)", "type": "cell-based", "settings": "72 h", "description": "as §1"}, "P31/FUJ": {"tested_on": "P31/FUJ", "assay": "Sensitivity of AML cell lines to drug treatment (MTS assay)", "type": "cell-based", "settings": "72 h", "description": "as §1"}},
  "data": [
    {"smiles": "CC(C)(C)c1nc2c3cc[nH]c(=O)c3c3cc(F)ccc3c2[nH]1", "note": "[JAK I]", "values": [
      {"measurement": "sensitivity of cell line to inhibitor (survival by MTS assay)", "setting": "AML-193", "value": "sensitive"},
      {"measurement": "sensitivity of cell line to inhibitor (survival by MTS assay)", "setting": "HEL", "value": "resistant"}
    ]},
    {"smiles": "COC[C@H]1OC(=O)c2coc3c2[C@@]1(C)C1=C(C3=O)[C@@H]2CCC(=O)[C@@]2(C)C[C@H]1OC(C)=O", "note": "[WM, wortmannin]", "values": [
      {"measurement": "phosphorylated peptides significantly (p<0.05) affected by WM treatment", "setting": "NIH-3T3 fibroblasts", "value": 265}
    ]},
    {"smiles": "Oc1cccc(-c2nc(N3CCOCC3)c3oc4ncccc4c3n2)c1", "note": "[PI-103]", "values": [
      {"measurement": "sensitivity of cell line to inhibitor (survival by MTS assay)", "setting": "MV4-11", "value": "sensitive"},
      {"measurement": "sensitivity of cell line to inhibitor (survival by MTS assay)", "setting": "P31/FUJ", "value": "resistant"}
    ]}
  ]
}
